pIC50: −log10 of the molar value. Counter-ions that a name gives are not always drawn.
Molecular target: T1, Syk tyrosine kinase (Homo sapiens, UniProt P43405)
T1 construct: purchased Carna Biosciences, Inc
Test: Test for Syk tyrosine kinase inhibitory activity (ELISA)
Format: biochemical
Conditions: Syk tyrosine kinase (Carna Biosciences), 25 μM ATP in substrate solution, 30° C. 1 hour, n=2; read-out: Evaluation (IC50, concentration inhibiting the tyrosine kinase activity at 50%)
Description: Test Example 1: Test for Syk Tyrosine Kinase Inhibitory Activity
1. Preparation of Test Substance
A test substance was prepared at 10 mM in dimethyl sulfoxide (DMSO), and further diluted with DMSO to concentrations of 1000, 300, 100, 30, 10, 3, 1, 0.3, 0.1, 0.03, and 0.01 μM. The resulting solutions were further diluted to 20-fold with an assay buffer, whereby test substance solutions were prepared. As a negative control, a solution obtained by diluting DMSO to 20-fold with an assay buffer was used. As the assay buffer, a buffer containing 15 mM Tris-HCl (pH 7.5), 0.01 (v/v) % Tween-20, and 1 mM dithiothreitol was used.
2. Measurement of Syk Tyrosine Kinase Inhibitory Activity
The activity was measured using the ELISA method. Each of the test substance solutions was added to a streptavidine-coated 96-well place (DELFIA Strip Plate 8×12 wells, PerkinElmer Co., Ltd,) at 10 μL per well (n=2), and a substrate solution (625 nM biotinylated peptide substrate, 25 μM ATP, 25 mM MgCl2, 15 mM Tris-HCl (pH 7.5), 0.01 (v/v) % Tween-20, 1 mM dithiothreitol) was added to the plate at 20 μL per well, and the resulting mixture was stirred. Finally, Syk tyrosine kinase (Carna Biosciences, Inc.) (previously diluted to 0.025 nM with the assay buffer) was added to the plate at 20 μL per well, and the resulting mixture was stirred. A reaction was allowed to proceed at 30° C. for 1 hour. After the plate was washed 4 times with a washing buffer (50 mM Tris-HCl (pH 7.5, 150 mM NaCl, 0.02 (v/v) % Tween-20), a blocking buffer (0.1% bovine serum albumin, 50 mM Tris-HCl (pH 7.5), 150 mM NaCl, 0.02 (v/v) % Tween-20) was added to the plate at 150 μL per well, and blocking was performed at 30° C. for 30 minutes. Then, the blocking buffer was removed, and a horseradish peroxidase-labeled anti-phosphorylated tyrosine antibody (BD Biosciences, Inc.) (previously diluted to 10000-fold with the blocking buffer) was added to the plate at 100 μL per well, and the plate was incubated at 30° C. for 30 minutes. After the plate was washed 4 times with the washing buffer, a 3,3′,5,5′-tetramethylbenzidine solution (Sigma-Aldrich Co., Ltd.) was added to the plate at 100 μL per well to develop the color for 10 minutes. The reaction was stopped by adding 0.1 M sulfuric acid at 100 μL per well. The absorbance at 450 nm was measured using a microplate reader (Multiskan F C, Thermo Fisher Scientific K,K.).
3. Analysis of Measurement Results
A non-linear regression analysis was performed for the measured absorbance using the SAS system (SAS institute. Inc.), and a concentration of each of the test substances: inhibiting the tyrosine kinase activity at 50% (IC50 ) was calculated. A case where IC50 is […] was evaluated as ***, a case where IC50 is 5 nM or more and less than 50 nM was evaluated as **, and a case where IC50 is 50 nM or more and less than 500 nM was evaluated as *, which are shown in the column of evaluation item.

**Q.** `N#Cc1ccnc(Nc2cc(C3CC3)cc(-c3ccc(N4CCN(C(N)=S)CC4)nc3)n2)c1` [Example 46, 4-{6-[(4-cyanopyridin-2-yl)amino]-4-cyclopropyl-2,3′-bipyridin-6′-yl}piperazine-1-carbothioamide hydrochloride] was tested. Which pIC50 did it give?
**A.** Its pIC50 is 6.30 to 7.30.

**Q.** `N#Cc1ccnc(Nc2cc(C3CC3)cc(-c3ccc(N4CCC[C@@H]4C(N)=O)nc3)n2)c1` [Example 47, (R)-1-{6-[(4-cyanopyridin-2-yl)amino]-4-cyclopropyl-2,3′-bipyridin-6′-yl}pyrrolidine-2-carboxamide hydrochloride] was tested. Which pIC50 did it give?
**A.** The pIC50 was 6.30 to 7.30.

**Q.** With `N#Cc1ccnc(Nc2cc(C3CC3)cc(-c3ccc(N4CCC[C@H]4CO)nc3)n2)c1` [Example 48, 2-{(4-cyclopropyl-6′-[(2S)-2-(hydroxymethyl)pyrrolidin-1-yl]-2,3′-bipyridin-6-yl}amino)pyridine-4-carbonitrile hydrochloride] as the molecule, how does the pIC50 read?
**A.** The pIC50 was 6.30 to 7.30.

**Q.** How did the pIC50 turn out when `N#Cc1ccnc(Nc2cc(C3CC3)cc(-c3ccc(N4CC[C@@H](N)C4)nc3)n2)c1` [Example 49, 2-({6′-[(3R)-3-aminopyrrolidin-1-yl]-4-cyclopropyl-2,3′-bipyridin-6-yl}amino)pyridine-4-carbonitrile dihydrochioride] was run?
**A.** Its pIC50 is 7.30 to 8.30.

**Q.** `CC(=O)N[C@@H]1CCN(c2ccc(-c3cc(C4CC4)cc(Nc4cc(C#N)ccn4)n3)cn2)C1` [Example 50, N-[(3R)-1-{6-[(4-cyanopyridin-2-yl)amino]-4-cyclopropyl-2,3′-bipyridin-6′-yl}pyrrolidin-3-yl]acetamide hydrochloride] was tested. Which pIC50 did it give?
**A.** The pIC50 was 6.30 to 7.30.

**Q.** `N#Cc1ccnc(Nc2cc(C3CC3)cc(-c3ccc(N4CC[C@@H](F)C4)nc3)n2)c1` [Example 51, 2-({4-cyclopropyl-6′-[(3R)-3-fluoropyrrolidin-1-yl]-2,3′-bipyridin-6-yl}amino)pyridine-4-carbonitrile hydrochloride] was tested. Which pIC50 did it give?
**A.** Its pIC50 is 6.30 to 7.30.

**Q.** How did the pIC50 turn out when `CN(C)[C@@H]1CCN(c2ccc(-c3cc(C4CC4)cc(Nc4cc(C#N)ccn4)n3)cn2)C1` [Example 52, 2-({4-cyclopropyl-6′-[(3R)-3-(dimethylamino)pyrrolidin-1-yl]-2,3′-bipyridin-yl}amino)pyridine-4-carbonitrile hydrochloride] was run?
**A.** The pIC50 was 6.30 to 7.30.

**Q.** With `N#Cc1ccnc(Nc2cc(C3CC3)cc(-c3ccc(N4CCCC4=O)nc3)n2)c1` [Example 53, 2-{[4-cyclopropyl-6′-(2-oxopyrrolidin-1-yl)-2,3′-bipyridin-6-yl]amino}pyridine-4-carbonitrile hydrochloride] as the molecule, how does the pIC50 read?
**A.** Its pIC50 is 6.30 to 7.30.

**Q.** With `Cc1ccc(-c2cc(C3CC3)cc(Nc3cc(C#N)ccn3)n2)cn1` [Example 54, 2-[(4-cyclopropyl-6′-methyl-2,3′-bipyridin-6-yl)amino]pyridine-4-carbonitrile hydrochloride] as the molecule, how does the pIC50 read?
**A.** The pIC50 was 6.30 to 7.30.

**Q.** With `N#Cc1ccnc(Nc2cc(C3CC3)cc(-c3ccc4cn[nH]c4c3)n2)c1` [Example 55, 2-{[4-cyclopropyl-6-(1H-indazol-6-yl)pyridin-2-yl]amino}pyridine-4-carbonitrile hydrochloride] as the molecule, how does the pIC50 read?
**A.** Its pIC50 is 7.30 to 8.30.

**Q.** With `N#Cc1ccnc(Nc2cc(C3CC3)cc(-c3ccc4[nH]ncc4c3)n2)c1` [Example 56, 2-{[4-cyclopropyl-6-(1H-indazol-5-yl)pyridin-2-yl]amino}pyridine-4-carbonitrile hydrochloride] as the molecule, how does the pIC50 read?
**A.** The pIC50 was 7.30 to 8.30.

**Q.** With `N#Cc1ccnc(Nc2cc(C3CC3)cc(-c3ccc(N4CCN(C(N)=O)CC4)nc3)n2)c1` [Example 57, 4-{6-[(4-cyanopyridin-2-yl)amino]-4-cyclopropyl-2,3′-bipyridin-6′-yl}piperazine-1-carboxamide hydrochloride] as the molecule, how does the pIC50 read?
**A.** Its pIC50 is 7.30 to 8.30.

**Q.** With `CS(=O)(=O)N1CCN(c2ccc(-c3cc(C4CC4)cc(Nc4cc(C#N)ccn4)n3)cn2)CC1` [Example 58, 2-({4-cyclopropyl-6′-[4-(methanesulfonyl)piperazin-1-yl]-2,3′-bipyridin-6-yl}amino)pyridine-4-carbonitrile hydrochloride] as the molecule, how does the pIC50 read?
**A.** Its pIC50 is 7.30 to 8.30.

**Q.** With `CC(=O)N1CCN(c2ccc(-c3cc(C4CC4)cc(Nc4cc(C#N)ccn4)n3)cn2)CC1` [Example 59, 2-{[6′-(4-acetylpiperazin-1-yl)-4-cyclopropyl-2,3′-bipyridin-6-yl]amino}pyridine-4-carbonitrile hydrochloride] as the molecule, how does the pIC50 read?
**A.** The pIC50 was 7.30 to 8.30.

**Q.** How did the pIC50 turn out when `N#Cc1ccnc(Nc2cc(C3CC3)cc(-c3ccc(N4CCC(C(=O)O)CC4)nc3)n2)c1` [Example 60, 1-{6-[(4-cyanopyridin-2-yl)amino]-4-cyclopropyl-2,3′-bipyridin-6′-yl}piperidine-4-carboxylic acid hydrochloride] was run?
**A.** Its pIC50 is 7.30 to 8.30.

**Q.** How did the pIC50 turn out when `N#Cc1ccnc(Nc2cc(C3CC3)cc(-c3ccc(N4CCC(C(N)=O)CC4)nc3)n2)c1` [Example 61, 1-{6-[(4-cyanopyridin-2-yl)amino]-4-cyclopropyl-2,3′-bipyridin-6′-yl}piperidine-4-carboxamide hydrochloride] was run?
**A.** The pIC50 was 6.30 to 7.30.

**Q.** How did the pIC50 turn out when `N#Cc1ccnc(Nc2cc(C3CC3)cc(-c3ccc(N4CCC(C(N)=O)(c5ccc(F)cc5)CC4)nc3)n2)c1` [Example 62, 1-{6-[(4-cyanopyridin-2-yl)amino]-4-cyclopropyl-2,3′-bipyridin-6′-yl}-4-(4-fluorophenyl)piperidine-4-carboxamide hydrochloride] was run?
**A.** The pIC50 was 7.30 to 8.30.

**Q.** `CNC(=O)CN1CCN(c2ccc(-c3cc(C4CC4)cc(Nc4cc(C#N)ccn4)n3)cn2)CC1` [Example 63, 2-(4-{6-[(4-cyanopyridin-2-yl)amino]-4-cyclopropyl-2,3′-bipyridin-6′-yl}piperazin-1-yl)-N-methylacetamide hydrochloride] was tested. Which pIC50 did it give?
**A.** Its pIC50 is 6.30 to 7.30.

**Q.** How did the pIC50 turn out when `N#Cc1ccnc(Nc2cc(C3CC3)cc(-c3ccc(N4CCC(NC(N)=O)CC4)nc3)n2)c1` [Example 64, 1-(1-{6-[(4-cyanopyridin-2-yl)amino]-4-cyclopropyl-2,3′-bipyridin-6′-yl}piperidin-4-yl)urea hydrochloride] was run?
**A.** Its pIC50 is 7.30 to 8.30.

**Q.** How did the pIC50 turn out when `N#Cc1ccnc(Nc2cc(C3CC3)cc(-c3ccc(NC4CCN(C(N)=O)CC4)nc3)n2)c1` [Example 65, 4-({6-[(4-cyanopyridin-2-yl)amino]-4-cyclopropyl-2,3′-bipyridin-6′-yl}amino)piperidine-1-carboxamide hydrochloride] was run?
**A.** The pIC50 was 7.30 to 8.30.

**Q.** With `N#Cc1ccnc(Nc2cc(C3CC3)cc(-c3ccc(N4CCNCC4=O)nc3)n2)c1` [Example 66, 2-{[4-cyclopropyl-6′-(2-oxopiperazin-1-yl)-2,3′-bipyridin-6-yl]amino}pyridine-4-carbonitrile hydrochloride] as the molecule, how does the pIC50 read?
**A.** The pIC50 was 6.30 to 7.30.

**Q.** `N#Cc1ccnc(Nc2cc(C3CC3)cc(-c3ccc(N4CCN(C(N)=O)CC4=O)nc3)n2)c1` [Example 67, 4-{6-[(4-cyanopyridin-2-yl)amino]-4-cyclopropyl-2,3′-bipyridin-6′-yl}-3-oxopiperazine-1-carboxamide hydrochloride] was tested. Which pIC50 did it give?
**A.** The pIC50 was 6.30 to 7.30.

**Q.** `N#Cc1ccnc(Nc2cc(C3CC3)cc(-c3cncc(N4CCS(=O)(=O)CC4)c3)n2)c1` [Example 68, 2-{[4-cyclopropyl-5′-(1,1-dioxidethiomorpholin-4-yl)-2,3′-bipyridin-6-yl]amino}pyridine-4-carbonitrile hydrochloride] was tested. Which pIC50 did it give?
**A.** Its pIC50 is 6.30 to 7.30.

**Q.** How did the pIC50 turn out when `N#Cc1ccnc(Nc2cc(C3CC3)cc(-c3cncc(N4CCCN(C(N)=O)CC4)c3)n2)c1` [Example 69, 4-{6-[(4-cyanopyridin-2-yl)amino]-4-cyclopropyl-2,3′-bipyridin-5′-yl}-1,4-diazepane-1-carboxamide hydrochloride] was run?
**A.** Its pIC50 is 7.30 to 8.30.

**Q.** `N#Cc1ccnc(Nc2cc(C3CC3)cc(-c3ccc(CN4CCNC(=O)C4)nc3)n2)c1` [Example 70, 2-({4-cyclopropyl-6′-[(3-oxopiperazin-1-yl)methyl]-2,3′-bipyridin-6-yl}amino)pyridine-4-carbonitrile hydrochloride] was tested. Which pIC50 did it give?
**A.** Its pIC50 is 6.30 to 7.30.

**Q.** With `N#Cc1ccnc(Nc2cc(C3CC3)cc(-c3ccc(CO)nc3)n2)c1` [Example 71, 2-{[4-cyclopropyl-6′-(hydroxymethyl)-2,3′-bipyridin-6-yl]amino}pyridine-4-carbonitrile hydrochloride] as the molecule, how does the pIC50 read?
**A.** Its pIC50 is 6.30 to 7.30.
